Entries after “also recorded” stand apart in the source; their conditions may differ. Where two headings read alike, the source gives them in different places.
Tests used:
cold sores = experiment: Cold sore treatment, 15 subjects; conditions: human, in vivo
[1] = test system: skin laser wounds in patients; experiment: Salts of pyruvate and SRF on skin laser wounds in patients: healing and irritation
Protocol: (§1) All previous studies using pyruvate to treat wounds or be used as an antioxidant used only the sodium salt form of pyruvic acid. The drug products that were tested in previous studies used 1-3% sodium pyruvate and other sodium salts of alpha keto acids by weight 1-3% concentrations in the lotions and triple antibiotic formulations. […]

[2] = test system: cultured human dermal fibroblasts; experiment: Procollagen production in cultured human dermal fibroblasts (ELISA); type: cell-based
non-cancerous cells = experiment: Viable non-cancerous cells after incubation with anticancer drugs in various media; type: cell-based; parameters: Percentage of viable cells, Drugs in commercial formula with SRF: concentration or dose not given beside the values
wounded hairless Rats = experiment: Nitric oxide production and days to healing in wounded hairless rats; type: in vivo, rat; conditions: topical
[3] = test system: Doxorubicin treated wounded hairless rats; experiment: Rat wound strength healing study, doxorubicin-impaired wounds; type: in vivo; conditions: for Days to healing: Doxorubicin treated wounded hairless rats, topical, 2% pyruvate salts, 1% L proline, 1% L-citrulline; for Percentage of wound breaking strength, by day 21: compared to non-wounded normal skin (100%)
Protocol: Wound breaking strength is a measurement of wound strength after injury compared to normal noninjuried skin. Fourteen groups of five rats each were studied. The SRF was administered topically daily. All groups were wounded at postoperative day 0, at which time Doxo was given to all Groups. All wounds were harvested at POD 21, and the mean wound breaking strength (WBS) of each group was obtained using an Instron Tensiometer.

tumors = experiment: SRF given 1-2 hours prior to 3-bromopyruvate: tumor size; type: in vivo; conditions: 3 bromopyruvate by itself
Protocol: To date most patients with cancer that are treated with radiation or cancer drugs show a partial reduction of tumor sizes, but in most cases the cancer remains and life expectances increases for a short period of time. This is the case for tumors. Five patients with various cancers were treated with 3-Bromopyruvate, an alkylating agent and a well-known inhibitor of energy metabolism. Results to date have been mixed. The problem with most cancer drugs is not only their toxicity to noncancerous tissue, but is their inability to completely eradicate the cancer. Cancer drugs cause hypoxia in normal noncancerous cells and they destroy tissue and their ability to heal. In mice studies conducted by others, they investigated the chemo preventive activity of 3-bromopyruvate. For the topical treatment the mice were treated with 10-30 mg/5 ml daily and treated for 8 weeks. […] 3-Bromopyruvate also dissociated hexokinase II from mitochondria, reduced hexokinase activity, and blocked energy metabolism in cancer cells, finally triggered cancer cell death and induced apoptosis through caspase-3, and PARP in human lung cancer cell line. The problem with 3-bromopyruvate was its toxicity to normal cells. The formula needed to protect noncancerous cells from 3-bromopyruvate and to enhance its effect on tumors, was the addition of SRF 1-2 hours prior to the administration of the 10 mg of 3-bromopyruvate. […]

[4] = test system: UVB-induced wrinkle formation; experiment: Topical alpha-ketoglutarate on UVB-induced wrinkle formation; type: in vivo, human; conditions: 1% topical, 6 weeks
[5] = test system: laser wounds on the left arm; experiment: Pigmentation study on laser wounds; type: in vivo; conditions: range 1-10, 10 totally normal
Text: Six laser wounds were made on the left arm. As an example, Mupirocin was placed on the first wound site, Mupirocin plus sodium pyruvate was placed on the second wound site and Mupirocin with SRF was placed on third wound site. The same process was repeated with another drug for sites 4-6. Every two days the bandages coated with the drugs were removed and replaced five times. Pigmentation measurements range from 1-10 with 10 being totally normal. The mupirocin drug formulas averaged a 4.9 for pigmentation. […]. The addition of the SRF averaged 7.45 a […] increase in pigmentation.

wounds = experiment: Various drugs administered on wounds with or without sodium pyruvate or SRF: erythema rating and days to total re-epithelization; conditions: for Drugs in commercial formula with SRF erythema / Drugs in commercial formula with sodium pyruvate only erythema / Drugs in commercial formula erythema: Rating 1-10, 1 most erythema, 10 no erythema; for Drugs in commercial formula erythema / Drug in commercial formula Days to healing: drug alone; for Drug in commercial formula with SRF. Days to healing / Drug in commercial formula with sodium pyruvate only. Days to healing / Drug in commercial formula Days to healing: days to total re-epithelization
Protocol: as §1

HSV-1 or 2 = experiment: Viral plaques in virally infected cells, HSV; type: cell-based
Text: Results: The primary end points were the levels of IL-8 and IL-1 after treatment with an immunostimulators, and SRF. […] IL-8 activates neutrophils to increase their numbers at the infected site. […] IL-1 increases inflammation and decreases healing times. […] The same experiment was done with virally infected cells and the SRF in combination with immunostimulators decreased viral plaque formed by HSV-1 or 2 by 70% and HPV-18 decreased by 82%. Viral plaques are a direct measure of viral numbers in infected cells.

virally infected cells = experiment: Viral plaque formation in virally infected cells; type: cell-based
Text: A commercial cold sore formula was purchased and the enumerated keto acids were placed into it to treat cold sores, both as a combination and singly as well. The commercial formulation by itself was utilized as a control. […] However, when SRF was placed in the cold sore formulation both with and without anti-oxidants and fatty acids, they heal the cold sore at a much faster rate 10-40% when tested on a cold sore sufferer The same experiment was done with virally infected cells and the combination of pyruvate and α-Ketoisovalerate with SRF decreased viral plaque formation by 50%. Viral plaques are a direct measure of viral numbers in infected cells. […] Other antivirals were evaluated with SRF to determine if the addition of SRF could reduce the skin irritation produced by Foscarnet sodium, Ribavirin, imiquimod, vidarabine, ganciclovir sodium, zidovudine, phenol, amantadine hydrochloride, and interferon. alpha.-n3. Even though some of these anti virals are not effective against a cold sore, they were evaluated on human cold sores to determine if SRF could reduce the irritation and enhance healing at the infection site. All formula with SRF healed cold sore two days faster than non-treatments and when this formula was combined with antiviral, like acyclovir or docosonal, the viral lesions healed 1.5 days faster than the commercial antiviral agent alone (Abreva or acyclovir). […]

HPV 16 or 18 = experiment: Viral plaque reduction, patients with vaginal HPV treated with SRF cream containing imiquimod; conditions: human, in vivo
Protocol: Percentage of Viral Plaque Reduction in Virally Infected Cells in Humans
A total of 15 patients with vaginal HPV 16 or 18 were treated with the SRF cream that also contained imiquimod. […] SRF reduces viral plaques in virally infected cells by 22-34%. Unexpectedly, the combination of SRF and Imiquimod produced the best results, by reducing the viral plaques over 92%, eliminating the virus from most of the infected cells. This tissue culture data along with data from humans, confirms that this combination worked.

[6] = Amount of salts delivered in the pyruvate formulations compared to amounts in human blood; conditions: amount delivered in the pyruvate formulation
[7] = same concentration of pyruvate for each salt, compared with sodium pyruvate formulations or base

Q: With `CCCCCCCCCCCCCCCCCCCCCCO` [docosonal] as the compound, how does the “cold sore efficacy, lesion healing” value (cold sores) read?
A: better efficacy with the addition of SRF

Q: For `CC(=O)C(=O)O.N` [ammonium pyruvate], which irritation or toxicity ([1]; human, in vivo) is on record?
A: irritating and possibly toxic

Q: What about the wound healing results [1, 7] of the same compound?
A: slight increases in healing; also recorded: did not produce increases in healing over the base

Q: Which “procollagen synthesis by alpha-ketoglutarate” value ([2]; prolidase inhibitor added) does the source give for `O=C(O)[C@@H]1CCCN1C(=O)OCc1ccccc1` [Cbz-Pro, N-benzyloxycarbonyl-L-proline] here?
A: inhibited procollagen synthesis

Q: Which “Percentage of viable cells after incubation with drugs” value (from here on “Percentage … with drugs”) (non-cancerous cells) does the source give for `CC(C)(C#N)c1cc(Cn2cncn2)cc(C(C)(C)C#N)c1` [anastrozole] here?
A: 24%

Q: What about the “Percentage of viable cells, Drugs in commercial formula” value (non-cancerous cells) of the same compound?
A: 25%

Q: What about the “Percentage of viable cells, Drugs in commercial formula sodium pyruvate without SRF” value (non-cancerous cells) of the same compound?
A: 50%

Q: And the “Percentage of viable cells, Drugs in commercial formula with SRF” value (non-cancerous cells)?
A: 86%

Q: And the “Percentage of viable cells, Drugs in commercial formula with SRF repeat study” value (from here on “Percentage … with SRF repeat study”) (non-cancerous cells)?
A: 94%

Q: With Calcium pyruvate as the compound, how does the “% of NO levels against normal nonwounded skin” value (wounded hairless Rats) read?
A: 22%

Q: And the Days to healing (wounded hairless Rats)?
A: 15 days

Q: And the Days to healing [3]?
A: 14 days

Q: And the “Percentage of wound breaking strength, by day 21” value [3]?
A: 42%

Q: Which irritation or toxicity ([1]; human, in vivo) does the source give for `CC(=O)C(=O)[O-].[Li+]` [lithium pyruvate] here?
A: irritating and possibly toxic

Q: What about the wound healing results [1, 7] of the same compound?
A: slight increases in healing; also recorded: did not produce increases in healing over the base

Q: With `O=C(O)C(=O)CBr` [3-bromopyruvate] as the compound, how does the “reduction of tumor sizes” value (tumors) read?
A: 60%

Q: With `O=C(O)CCC(=O)C(=O)O` [alpha-ketoglutarate] as the compound, how does the stimulated procollagen production ([2]; 10 microM, compared to vehicle (dH(2)O)-treated control cells) read?
A: 25.6+/−4.6%

Q: What about the activities of prolidase ([2]; fibroblasts) of the same compound?
A: increased

Q: And the wrinkle formation [4]?
A: decreased wrinkle formation

Q: For `COc1cccc2c1C(=O)c1c(O)c3c(c(O)c1C2=O)C[C@@](O)(C(=O)CO)C[C@@H]3O[C@H]1C[C@H](N)[C@H](O)[C@H](C)O1` [Doxorubicin], which “impaired normal wound strength by” value ([3]; Doxo 6 mg/kg i.v., POD 21) is on record?
A: 40%

Q: Which irritation or toxicity ([1]; human, in vivo) does the source give for `CC(=O)C(=O)[O-].[Na+]` [sodium salt of pyruvic acid, sodium pyruvate] here?
A: no irritation

Q: What about the wound healing results [1, 7] of the same compound?
A: enhanced healing

Q: What does the source list for Magnesium pyruvate?
A: % of NO levels against normal nonwounded skin (wounded hairless Rats): 36%; Days to healing (wounded hairless Rats): 13 days; Days to healing [3]: 14 days; Percentage of wound breaking strength, by day 21 [3]: 44%; wound healing results ([1]; human, in vivo): slight increases in healing; also recorded: did not produce increases in healing over the base

Q: With Bevacizumab as the compound, how does the “Percentage … with drugs” value (non-cancerous cells) read?
A: 21%

Q: And the “Percentage of viable cells, Drugs in commercial formula” value (non-cancerous cells)?
A: 27%

Q: What about the “Percentage of viable cells, Drugs in commercial formula sodium pyruvate without SRF” value (non-cancerous cells) of the same compound?
A: 40%

Q: And the “Percentage … with SRF repeat study” value (non-cancerous cells)?
A: 87%

Q: Which wound healing results [1, 7] does the source give for aluminum pyruvate here?
A: slight increases in healing; also recorded: did not produce increases in healing over the base

Q: Which results are given for `C/C(=C\C(=O)OCCCCCCCCC(=O)O)C[C@@H]1OC[C@H](C[C@@H]2O[C@H]2[C@@H](C)[C@H](C)O)[C@@H](O)[C@H]1O` [Mupirocin]?
A: Pigmentation measurement [5]: 4.9; Drugs in commercial formula with SRF erythema (wounds): 8; Drugs in commercial formula with sodium pyruvate only erythema (wounds): 6; Drugs in commercial formula erythema (wounds): 4; Drug in commercial formula with SRF. Days to healing (wounds): 11 days; Drug in commercial formula with sodium pyruvate only. Days to healing (wounds): 15 days; Drug in commercial formula Days to healing (wounds): 20 days

Q: Which “decreased viral HSV plaques” value (HSV-1 or 2) does the source give for `Nc1nc2c(ncn2COCCO)c(=O)[nH]1` [Acyclovir] here?
A: 60%

Q: And the “Drugs in commercial formula with SRF erythema” value (wounds)?
A: 7

Q: And the “Drugs in commercial formula with sodium pyruvate only erythema” value (wounds)?
A: 5

Q: And the “Drugs in commercial formula erythema” value (wounds)?
A: 4

Q: And the “Drug in commercial formula with SRF. Days to healing” value (wounds)?
A: 10 days

Q: What about the “Drug in commercial formula with sodium pyruvate only. Days to healing” value (wounds) of the same compound?
A: 13 days

Q: And the “Drug in commercial formula Days to healing” value (wounds)?
A: 18 days

Q: And the “decrease of viral plaque formation” value (virally infected cells)?
A: 60%

Q: For `CC(C)Cn1cnc2c(N)nc3ccccc3c21` [Imiquimod], which “reduction of viral plaques in virally infected cells” value (HPV 16 or 18) is on record?
A: 25-40%

Q: Which “Percentage of viable cells, Drugs in commercial formula” value (non-cancerous cells) does the source give for `CN(Cc1cnc2nc(N)nc(N)c2n1)c1ccc(C(=O)N[C@@H](CCC(=O)O)C(=O)O)cc1` [methotrexate] here?
A: 43%

Q: And the “Percentage of viable cells, Drugs in commercial formula sodium pyruvate without SRF” value (non-cancerous cells)?
A: 68%

Q: And the “Percentage of viable cells, Drugs in commercial formula with SRF” value (non-cancerous cells)?
A: 94%

Q: And the “Percentage … with drugs” value (non-cancerous cells; drug)?
A: 42%

Q: What about the “Percentage … with SRF repeat study” value (non-cancerous cells; repeat study) of the same compound?
A: 98%

Q: What does the source list for Bleomycin?
A: Percentage of viable cells, Drugs in commercial formula (non-cancerous cells): 33%; Percentage of viable cells, Drugs in commercial formula sodium pyruvate without SRF (non-cancerous cells): 47%; Percentage of viable cells, Drugs in commercial formula with SRF (non-cancerous cells): 98%; Percentage of viable cells after incubation with drugs (non-cancerous cells; drug): 31%; Percentage of viable cells, Drugs in commercial formula with SRF repeat study (non-cancerous cells; repeat study): 98%

Q: Which wound healing results [1, 7] does the source give for manganese pyruvate here?
A: slight increases in healing; also recorded: did not produce increases in healing over the base

Q: With `Oc1ccccc1` [phenol] as the compound, how does the “cold sore efficacy, lesion healing” value (cold sores) read?
A: did not work very well

Q: Which “Percentage … with drugs” value (non-cancerous cells) does the source give for `O=c1[nH]c(=O)n([C@H]2C[C@H](O)[C@@H](CO)O2)cc1F` [floxuridine] here?
A: 38%

Q: What about the “Percentage of viable cells, Drugs in commercial formula” value (non-cancerous cells) of the same compound?
A: 38%

Q: And the “Percentage of viable cells, Drugs in commercial formula sodium pyruvate without SRF” value (non-cancerous cells)?
A: 58%

Q: And the “Percentage of viable cells, Drugs in commercial formula with SRF” value (non-cancerous cells)?
A: 92%

Q: What about the “Percentage … with SRF repeat study” value (non-cancerous cells) of the same compound?
A: 91%

Q: With zinc pyruvate as the compound, how does the wound healing results [1, 7] read?
A: slight increases in healing; also recorded: did not produce increases in healing over the base

Q: And the irritation or toxicity ([1]; skin)?
A: irritating and possibly toxic

Q: And the “delivered salt relative to blood levels” value [6]?
A: 840 × blood levels
